We go through 8 compounds from patent publication US20030186943A1, “Substituted gamma-phenyl-delta-lactams and uses related thereto” (Inflazyme Pharmaceuticals Ltd., priority 1998, published 2003).

Molecules are shown by their SMILES. Like-named read-outs stand apart in the source and are kept apart here.

Format in all cases: cell-based
Test [1] has as its system primary human neutrophils. Put plainly: Generation of reactive oxygen species by fMLP-activated neutrophils (luminol-enhanced chemiluminescence). The note with it: Neutrophil. The method, boiled down: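 Fresh primary human neutrophils (5×10^6 cells/mL) preincubated 30 min at 37° C with compound in Ca^2+-containing HBSS pH 7.4, then stimulated with 1 μM fMLP in presence of 1 μM luminol. Chemiluminescence integrated over 30 min; IC50 from non-linear regression versus 0.25% DMSO control.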

Test [2] relates to TNF-α production in concanavalin-A stimulated primary human CD4+ T-lymphocytes. Put plainly: TNF-α production in Con-A stimulated human CD4+ T-cells (ELISA). The settings on record: T-lymphocyte, X marks this range. As for the experimental part:
Activated T-lymphocytes are known to produce TNF-α and may constitute a significant source of this important inflammatory mediator in localized regions of inflammation such as the rheumatoid synovium or psoriatic lesions. Supernatants from cona-stimulated primary human CD4+ T-cells that had been incubated in the presence or absence of a test compound were analyzed for TNF-α using an ELISA system. (Pharingen; recommended anti-TNF antibody set 18631-D and 18642-D). Substantial quantities of TNF-α were induced in vehicle treated T-cells stimulated with conA. […] This may be due to the differing sensitivity of monocyte/macrophages versus T-lymphocytes to elevations in intracellular cAMP with respect to regulatory pathways impacting TNF-α production.
(§1) Approximately 60 cc of whole human blood was collected into ACD anti-coagulant vacutainer tubes. 15 mL Ficoll Paque 1077 was aliquoted into 6 sterile 50 mL conical tubes. 10 mL of blood was slowly layered on top of the Ficoll Paque by holding the tube upright and resting the pipette tip at the inside edge of the tube and allowing the blood to slowly run down the side of the tube. Tubes were spun at 1700 rpm for 30 minutes at room temperature. The plasma layer above the leukocyte band was aspirated off and a pasteur pipette was used to lift off the leukocyte band and transfer it to a sterile 50 mL conical tube. Cells from each leukocyte gradiant tube were transferred to a separate 50 mL conical tube. Sterile PBS pH 7.4 was added to each 50 mL conical tube containing cells from leukocyte band to a volume of 50 mL. Tubes were spun at 1100 rpm for 10 minutes. Supernatant was aspirated off and the cells were resuspended in 50 mL PBS pH 7.4. Tubes were re-centrifuged at 1100 rpm for 10 minutes. Supernatant was aspirated off and the cells were resuspended in appropriate medium at a density of 5×10^7 cells/mL or 2×10^6 cells/mL.
(§2) CD 4+T-cell Preparation: Cells from Leukocyte preparation were resuspended in sterile PBS pH 7.4 supplemented with 2-6% Fetal Bovine Serum (FBS) at a density of 5×10^7 cells/mL. Cells were then ready for isolation.
(§3) 100 μL of antibody cocktail (Stem Cell Technologies, Catalogue No. 14062) was added for each mL of cells and mixed well. Cells+Ab cocktail was incubated on ice for 30 minutes. After 30 minute incubation, 60 μL of magnetic colloid was added for each mL of cells, and mixed well. Cells+Ab cocktail+magnetic colloid were incubated on ice for 30 minutes. After a final 30 minute incubation cells were ready for magnetic cell separation.
(§4) Sample was loaded into the top of a column. The stopcock was turned to allow the flow of media down through the column, and the media was collected into a collection tube. PBS supplemented with 2-6% FBS was added to the column until three column volumes had been collected (not including the volume of the start sample). Cells were washed, counted, and resuspended in RPMI 1640 with 10% FBS+2 mM L-glutamine at a density of 1×10^6 cells/mL.
(§5) CD4+ T-cells were isolated as described above. Cells were suspended in RPMI 1640 media (Stem Cell Technologies Inc.; Catalogue No. 36750) with 10% FBS+2 mM L-glutamine at a density of 1×10^6 cells/mL. Cells were maintained on ice as test compounds were prepared. Test compounds were prepared in a sterile 96-well assay plate at 50×the final desired test concentration, all wells contained an equal amount of dimethylsulfoxide vehicle. 500 μL of CD4^+ T-cells were added to each well of 24-well assay plate. 10 μL of each test compound working solution was added to the appropriate wells; two wells were left as stimulated and non-stimulated controls. 10 μL of concanavalin A (50×the final concentration) at 10 μg/mL was added to each well with the exception of the non-stimulated control wells. Cells were incubated at 37° C. for 48 hours. Conditioned media is then assessed by ELISA for the quantity of IL-2, […], TNFα and IL-10 present.
For orientation: In an ELISA, binding on a coated surface is turned into a signal by an enzyme label.

The test system of test [3] is IL-2 production in concanavalin A stimulated primary human CD4+ T-cells. Put plainly: IL-2 production (Th1 profile) in concanavalin A stimulated primary human CD4+ T-cells. The settings on record: for IC50: Homo sapiens, T-cell, 10 μg/mL Concanavalin A, 48 hours, X marks this range; for Th1 versus Th2 cytokine profile: conA stimulated CD4+ selected cells.
From the text: (§6) The assay on the primary human T-cells involves their activation by concanavalin A (conA); (Sigma, Catalogue No. C 5275), followed by ELISA detection for cytokines for either profile. In the case of Th1-profiles, IL-2 and INF-γ are used as benchmarks while IL-10 is the indicator for a Th2-profile. Biologically, these indicators are useful in that IL-2 is the major T-cell mitogen while IL-10 represents a powerful yet selective immunosuppressive agent.
as §1, §2, §3, §4, §5
(§7) Tables 5A, 5B and 5C represent a synopsis of data across individuals with respects to the potency of compounds of the invention in their ability to inhibit cytokines that are likely to promote or depress a Th1 or Th2 response. […]

Test [4] concerns IFN-gamma production in concanavalin A stimulated primary human CD4+ T-cells. Put plainly: IFN-gamma production (Th1 profile) in concanavalin A stimulated primary human CD4+ T-cells. The note with it: T-cell, 10 μg/mL Concanavalin A, 48 hours, X marks this range, read-out: INF-GAMMA IC50 RANGE (μM) 0.2-2.0.
From the text: as §6, §1, §2, §3, §4, §5, §7

The test system of test [5] is IL-10 production in concanavalin A stimulated primary human CD4+ T-cells. Put plainly: IL-10 production (Th2 profile) in concanavalin A stimulated primary human CD4+ T-cells. The note with it: T-cell, 10 μg/mL Concanavalin A, 48 hours, X marks this range.
From the text: as §6, §1, §2, §3, §4, §5, §7

The mark [6] stands for this setting: read-out: IC50 RANGE (μM) <1, ROS production, X marks this range.
[7] abbreviates: ROS production, X marks this range, read-out: IC50 RANGE (μM) 1-10.
[8] abbreviates: read-out: TNF-alpha IC50 RANGE (μM) 2.0-20.
The mark [9] stands for this setting: read-out: IL-2 IC50 RANGE (μM) 0.02-0.2.
Setting [10] is: read-out: IL-10 IC50 RANGE (μM) 2.0-20.
Setting [11] is: read-out: IL-2 IC50 RANGE (μM) 0.2-2.0.
The mark [12] stands for this setting: read-out: TNF-alpha IC50 RANGE (μM) <2.
[13] abbreviates: read-out: IL-10 IC50 RANGE (μM) 0.2-2.0.
The mark [14] stands for this setting: read-out: IL-10 IC50 RANGE (μM) 0.02-0.2.

For `COc1cc(C[C@@H]2CC(c3ccc(OC)c(OC)c3)COC2=O)ccc1O` (mixture of isomers) [Compound 12], in test [1] (setting [6]), the IC50 is less than 1 µM.

As to `COc1cc(C[C@@H]2C[C@@H](c3ccc(OC)c(OC)c3)COC2=O)ccc1O` [Compound 30], the IC50 in test [1] (setting [7]) was in the range of 1 to 10 µM; in test [2] (setting [8]), 2 to 20 µM; in test [3] (setting [9]), 0.02 to 0.2 µM; in test [4], 0.2 to 2 µM; in test [5] (setting [10]), 2 to 20 µM. Moreover, the “Th1 versus Th2 cytokine profile” value in test [3] is “selective inhibition of a Th1 profile”.

Consider `COc1ccc([C@@H]2CCC(=O)OC2)cc1OC1CCCC1` [Compound 41], for which the IC50 in test [1] (setting [6]) was less than 1 µM.

Regarding `COc1cc(CC2C[C@@H](c3ccc(OC)c(OC4CCCC4)c3)COC2=O)ccc1O` (stereo partly drawn) [Compound 43], the IC50 in test [1] (setting [6]) was less than 1 µM; in test [2] (setting [8]), 2 to 20 µM; in test [3] (setting [11]) it was 0.2 to 2 µM; in test [4], 0.2 to 2 µM; in test [5] (setting [10]), 2 to 20 µM.

On to `COc1ccc([C@H]2CNC(=O)C(Cc3ccc(OCc4ccccc4)c(OC)c3)C2)cc1OC` (stereo partly drawn) [Compound 54], for which the IC50 in test [1] (setting [7]) is 1 to 10 µM; in test [2] (setting [12]), less than 2 µM; in test [3] (setting [9]) it was 0.02 to 0.2 µM; in test [4] it was 0.2 to 2 µM; in test [5] (setting [13]), 0.2 to 2 µM. The “Th1 versus Th2 cytokine profile” value in test [3] was “selective inhibition of a Th1 profile”.

As for `COc1cc(CC2C[C@@H](c3ccc(OC)c(OC)c3)CNC2=O)ccc1O` (stereo partly drawn) [Compound 55], the IC50 lay in the range of 1 to 10 µM in test [1] (setting [7]); 2 to 20 µM in test [2] (setting [8]); 0.2 to 2 µM in test [3] (setting [11]); 0.2 to 2 µM in test [4]; 0.2 to 2 µM in test [5] (setting [13]).

On to `COc1cc(CC2C[C@@H](c3ccc(OC)c(OC4CCCC4)c3)CNC2=O)ccc1O` (stereo partly drawn) [Compound 62], for which the IC50 was 10 to 100 µM in test [1] (ROS production, X marks this range, read-out: IC50 RANGE (μM) 10-100); less than 2 µM in test [2] (setting [12]); 0.2 to 2 µM in test [3] (setting [11]); 0.2 to 2 µM in test [4]; 0.02 to 0.2 µM in test [5] (setting [14]).

In the case of `COc1ccc(C2CNC(=O)C2)cc1OC1CCCC1` (stereo not drawn) [Rolipram, reference compound], the IC50 in test [2] (setting [12]) is less than 2 µM; in test [3] (read-out: IL-2 IC50 RANGE (μM) 2.0-20), 2 to 20 µM; in test [4] it was 0.2 to 2 µM; in test [5] (setting [14]), 0.02 to 0.2 µM.

Usually IC50 stands for the concentration that inhibits the measured activity by half.
